This is an account of results in PubChem BioAssay AID179 (DTP/NCI, 2004).

The assay relates to CEM cells HIV-1 protection, formazan growth assay. The assay can be described thus: NCI AIDS Antiviral Assay. Conditions: for IC50: measured here: growth of uninfected CEM cells. The method in brief: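 Human CEM cells, uninfected and HIV-1-infected, exposed to five drug concentrations; growth measured by soluble formazan assay and scored as percent protection from infection, with protecting compounds retested.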

Structures are written as SMILES. Several values for one entry are separate records, joined by “and”; a condition that tells them apart may be missing. Equal entries are not always repeated. Activity calls are given as the source filed them.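 Rule for the calls: active = compounds giving half or more protection of infected cells from virus-caused growth loss, again on retest; inactive = the rest.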

Take `C/C=C(\C)C(=O)O[C@@H]1CC(C)(C)CC2C3=CCC4[C@]56CC[C@](O)(OC5)C(C)(C)C6CC[C@@]4(C)C3(C)CC[C@]21C(=O)O` (stereo partly specified): the EC50 is more than 200 µM and the IC50 is 18.2 µM.

For the compound `COC1(c2ccc(Cl)cc2)SC=C(C)n2c1noc2=O` (stereo unspecified), the EC50 is more than 200 µM and the IC50 is more than 200 µM.

As to `COc1cccc(C=O)c1[O-].[O]=[U](=[O])([OH2+])[OH2+]`, the EC50 is more than 79.4 µM and the IC50 is 39.8 µM.

Turning to `Cc1ccc(S(=O)(=O)NN=C2C(C)CC(C(C)(C)C)CC2C)cc1` (stereo unspecified), the EC50 is more than 200 µM and the IC50 turned out to be 31.6 µM.

For the compound `COC(=O)/C(=N\N)C(C(=O)C(=O)Nc1cc(Cl)ccc1Cl)c1nc2ccc([N+](=O)[O-])cc2[nH]c1=O` (stereo unspecified), the EC50 was more than 182 µM and the IC50 was found to be 83.2 µM.

For the compound `CC(=O)N=c1ccc2nc(N)nn(O)c-2c1`, the EC50 is more than 200 µM and the 50% inhibitory concentration (IC50) is more than 200 µM.

`CN1CCC(OC(=O)Oc2ccccc2)(c2ccccc2)CC1`: the EC50 was more than 200 µM and the IC50 was determined as 30.9 µM.

Consider `CCOC(=O)[C@H]1Nc2ccc(OC)cc2C2c3ccccc3CC21` (stereo partly specified), for which the EC50 is more than 57.5 µM and the half-inhibitory concentration (IC50) is more than 57.5 µM.

With `N#CC(C#N)=Cc1ccc(Oc2ccccc2)cc1`, the EC50 is more than 21.4 µM and the IC50 worked out at 16.6 µM.

`N#C[C@H](c1ccccn1)c1nc2ccccc2nc1Cl`: the EC50 is more than 200 µM and the IC50 is 115 µM.

On to `C1=CC2CCC1CN2CCC1CNc2ccccc21` (stereo unspecified), for which the result was inactive.

For `COc1cc(/C=C/C(=O)c2ccc(O)c(OC)c2)ccc1O`, the EC50 is more than 200 µM and the IC50 is 11.5 µM.

In the case of `C[C@]12c3c4cc(NC(=O)C(=O)NCc5ccc(-c6ccccn6)nc5)cc3Oc3cc(NC(=O)C(=O)NCc5ccc(-c6ccccn6)nc5)cc(c31)OC1C=C(NC(=O)C(=O)NCc3ccc(-c5ccccn5)nc3)C=C(O4)C12` (stereo partly specified), the EC50 was more than 100 µM and the IC50 turned out to be 21.4 µM.

In the case of `COc1cc(Br)c(CC2=NCCc3cc(OC)c(OC)cc32)cc1OC`, the result was inactive.

On to `COc1ccc2c(c1)Oc1cc(O)ccc1[C@H]2c1ccccc1C(=O)NC(C)c1ccccc1` (stereo partly specified), for which the EC50 was more than 15.8 µM and the IC50 was found to be 13.8 µM.

Consider `O=C1Cc2c(-c3ccccc3)cc(-c3ccc4ccccc4c3)nc2-c2ccccc2N1`, for which the EC50 was more than 200 µM and the IC50 was found to be 51.3 µM.

Consider `CCC(C)c1c(NC(C)=O)o[nH]c1=O` (stereo unspecified), for which the EC50 was more than 200 µM and the IC50 is more than 200 µM.

As to `CC(=O)Nc1cccc(N2C(=O)/C(=C\c3cccc(Oc4ccccc4)c3)SC2c2ccccc2)c1` (stereo unspecified), the EC50 is more than 200 µM and the IC50 came out at 30.9 µM.

Turning to `CC(C)CC(=O)NC(C(=O)NC(C(=O)NC(CC(C)C)C(O)CC(=O)NC(C)C(=O)NC(CC(C)C)C(O)CC(=O)O)C(C)C)C(C)C` (stereo unspecified), the EC50 is more than 36.3 µM and the half-maximal inhibitory concentration (IC50) was more than 36.3 µM.

For `COc1cc([C@H]2c3cc(O)c(OC)cc3CC3C(=O)OCC32)ccc1O` (stereo partly specified), the EC50 was more than 363 µM and the IC50 was more than 363 µM.

Consider `O=C(CC(NC(=O)OCc1ccccc1)C(=O)NC1Cc2ccccc2C1=O)OCc1ccccc1` (stereo unspecified), for which the EC50 was more than 200 µM and the IC50 was more than 200 µM.

For the compound `CN(C)c1ccc(/C=C(\NC(=O)c2ccccc2)C(=O)NCC(=O)O)cc1`, the EC50 is more than 100 µM and the IC50 is more than 100 µM.

Take `O=c1cnn(C2OC(CO)C(F)C2F)c(=O)[nH]1` (stereo unspecified): the EC50 was more than 363 µM and the IC50 is more than 363 µM.

In the case of `Cc1ccc(NC(=O)C(=O)C2NC(=S)NC2=O)c([N+](=O)[O-])c1` (stereo unspecified), the EC50 was more than 295 µM and the IC50 stood at 129 µM.

Take `CCOC(=O)C1(Cc2ccccc2)Cc2cc3c(cc2C1=O)CCC3` (stereo unspecified): the EC50 was more than 200 µM and the IC50 came out at 14.8 µM.

Take `NC(N)=NCCCC(NCc1c2ccccc2nc2ccccc12)C(=O)O` (stereo unspecified): the result was inactive.

Take `C=C(C)C1CC(=O)C(C)=C(O)C1` (stereo unspecified): the outcome was inactive.

With `Clc1ccc2sc3c(c2c1)CCNC3`, the outcome was inactive.

Regarding `CCOP(=O)(OCC)C1(O)CC(n2cc(C)c(=O)[nH]c2=O)OC1CO` (stereo unspecified), the EC50 is more than 200 µM and the IC50 was more than 200 µM.

Regarding `Cc1cccc(C)c1NC(=O)/C(CC(=O)CC(c1ccccc1)c1c(O)c2ccccc2oc1=O)=N/O` (stereo unspecified), the EC50 was more than 263 µM and the 50% inhibitory concentration (IC50) came out at 204 µM.

In the case of `C[N+](C)(C)C1C=CCC2=C1S(=O)(=O)C2` (stereo unspecified), the EC50 was more than 741 µM and the IC50 was 355 µM.

For the compound `Nc1cc2cccc[n+]2c2cccc(Cl)c12`, the EC50 was more than 200 µM and the IC50 worked out at 4.47 µM.

As for `CCCCC1(CCO)C(=O)NC(=S)NC1=O`, the EC50 was more than 200 µM and the IC50 is more than 200 µM.

As to `CC(C)(C)c1cc(-c2ccc(-c3cc(C(C)(C)C)c(O)c(C(C)(C)C)c3)cc2)cc(C(C)(C)C)c1O`, the EC50 was more than 100 µM and the IC50 is more than 100 µM.

With `CN(C)CCCN1CCC2(CCCCC2)CC1`, the outcome was inactive.

Regarding `O=C(O)c1cc(=O)c2cc(C(=O)c3cccs3)c(Cl)c(Cl)c2o1`, the EC50 was more than 9.55 µM and the IC50 is more than 9.55 µM.

Turning to `C/C1=C/COC(=O)CC/C(C)=C/CC1`, the result was inactive.

As to `CC(C)(CN1CCCCC1)C(=O)/C=C/c1ccc(Br)cc1`, the EC50 is more than 129 µM and the IC50 is 1.7 µM.

For the compound `CCN(CC)CCCNc1ccc([N+](=O)[O-])c2nc3ccc(OC)cc3c(N)c12`, the EC50 is more than 200 µM and the IC50 was 0.776 µM.

For the compound `Cc1cccc(C)c1C1(Cl)C(=O)c2ccccc2C1=O`, the EC50 was more than 200 µM and the IC50 came to 13.5 µM.

Consider `NC(CCSSCCC(N)C(=O)O)C(=O)O` (stereo unspecified), for which the EC50 is more than 19.5 µM and the half-inhibitory concentration (IC50) is more than 19.5 µM.

As for `O=C(O)c1cc(Br)cc(SSc2cc(Br)cc(C(=O)O)c2O)c1O`, the concentration for a half-maximal effect (EC50) is 102 µM and the IC50 was found to be 107 µM.

On to `COC(=O)/C=C1\C(CO[Si](C)(C)C(C)(C)C)OC(n2cc(C)c(=O)n(C)c2=O)C1O[Si](C)(C)C(C)(C)C` (stereo unspecified), for which the EC50 is more than 200 µM and the IC50 is 20.9 µM.

As to `CN1C(=O)C(Cl)(C(Cl)(Cl)S(=O)(=O)O)C(=O)c2ccccc21` (stereo unspecified), the result was inactive.

With `CCOC(=O)C1=NN(c2ccc(C)cc2)C2(c3ccccc3)C=C(c3ccccc3)N(C)CCN12` (stereo unspecified), the EC50 was more than 200 µM and the IC50 was 145 µM.

For `O=C1CC(c2ccc[nH]2)=NN1c1ccccc1`, the EC50 is more than 200 µM and the IC50 worked out at 83.2 µM.

As for `NC(CCc1nc(-c2ccccc2)cs1)C(=O)O` (stereo unspecified), the outcome was inactive.

Consider `CC(C)CCC[C@@H](C)C1CCC2[C@@H]3CCC4C[C@@H](CCCC=C(c5cc(Cl)c(O)c(C(=O)O)c5)c5cc(Cl)c(O)c(C(=O)O)c5)CC[C@]4(C)C3CC[C@@]21C` (stereo partly specified), for which the EC50 is 63.1 µM and the IC50 worked out at 166 µM.

`Oc1cc(O)c2c(c1)OC(c1ccc(O)c(O)c1)C(OC1(c3cc(O)c(O)c(O)c3)Oc3cc(O)cc(O)c3C(O)C1O)C2` (stereo unspecified): the EC50 is more than 200 µM and the half-inhibitory concentration (IC50) was 11.5 µM.

Consider `O=P(O)(O)C(NCC(O)CN1CCOCC1)P(=O)(O)O` (stereo unspecified), for which the EC50 was more than 200 µM and the IC50 was more than 200 µM.

In the case of `Cc1nn(-c2ccccc2)c2[nH]c(=S)cnc12`, the EC50 is more than 200 µM and the IC50 turned out to be 87.1 µM.

In the case of `CC1(C)CCC2=C(O1)c1ccccc1C(=O)C2=O`, the EC50 was more than 200 µM; the IC50 was 0.912 µM and 1.07 µM.

As to `COc1cc(N=CNc2cc(OC)n[n+]([O-])c2)c[n+]([O-])n1`, the EC50 is more than 224 µM and the half-maximal inhibitory concentration (IC50) was more than 224 µM.

`CSc1ccc(C2OC(=O)c3ccccc32)c2ccccc12` (stereo unspecified): the EC50 is more than 17 µM and the IC50 is more than 17 µM.

On to `CCOC(=O)C(=CN1CCNC1=S)C(=O)OCC`, for which the EC50 was more than 200 µM and the half-maximal inhibitory concentration (IC50) was more than 200 µM.

Consider `Nc1ccccc1/C=C/c1ccnc2ccccc12`, for which the EC50 is 0.0631 µM and the IC50 amounted to 40.7 µM.

As to `CCOC(=O)C(=O)N=Nc1c(O)[nH]c2ccccc12`, the EC50 was more than 200 µM and the half-inhibitory concentration (IC50) was more than 200 µM.

Turning to `CC1(C)CC2C(C1=O)C1(C)CCCC2(C)C1=O` (stereo unspecified), the EC50 was more than 200 µM and the IC50 is more than 200 µM.

For the compound `COC(=O)C1=C(C(=O)OC)C2CCC1CC2=O` (stereo unspecified), the EC50 is more than 200 µM and the IC50 was found to be 44.7 µM.

For the compound `N#Cc1ccsc1C#N`, the EC50 is more than 200 µM and the IC50 was more than 200 µM.

`Nc1nc(NNc2cccc(F)c2)cc(=O)[nH]1`: the EC50 was more than 200 µM and the IC50 turned out to be 16.6 µM.

In the case of `NC(N)=NS(=O)(=O)c1ccc(NCc2c3ccccc3[n+]([O-])c3ccccc23)cc1`, the outcome was inactive.

Consider `CC(=O)Oc1c(C)c(-c2ccccc2)c(C)c(-c2ccccc2)c1C(=S)c1ccccc1`, for which the result was inactive.

For `NC(=S)/N=C/c1c(O)c2ccccc2oc1=O`, the EC50 was more than 55 µM and the IC50 is more than 55 µM.

Regarding `CCC1=C(CC2NCCc3ccccc32)CC2c3cc(OC)c(OC)cc3CCN2C1` (stereo unspecified), the result was inactive.

Consider `COc1cc(C2=C(C)[C@@H]3CN(CC=C3c3ccc(Cl)cc3)C2)c(S(=O)(=O)O)cc1OC`, for which the outcome was inactive.

`C[N+](C)(C)CC(=O)N/N=C(/C=C/c1ccccc1)CC1OC(=O)c2ccccc21` (stereo unspecified): the EC50 is more than 589 µM and the IC50 was more than 589 µM.

Regarding `COC(=O)C1=C(C)N2CCCOC2(C)C(C(=O)OC)C1c1cccc(Cl)c1` (stereo unspecified), the EC50 is more than 200 µM and the IC50 was found to be 112 µM.

Turning to `CC1(C)CS(=O)(=O)CC(C)(C)C(=O)C1=O`, the EC50 was more than 200 µM and the IC50 is more than 200 µM.

Consider `O=c1[nH]c(Nc2nc3ccccc3[nH]2)nc(O)c1-c1ccccc1`, for which the EC50 is 162 µM and the IC50 was more than 200 µM.

Take `Cc1c(CN2CCCC2)c(O)c2c(=O)c3c(O)c(CN4CCCC4)c(O)c4c5c(O)c(CN6CCCC6)c(O)c6c(=O)c7c(O)c(CN8CCCC8)c(C)c8c1c2c(c34)c(c78)c65`: the EC50 was more than 17.8 µM and the IC50 was more than 17.8 µM.

With `CC1CC(c2cccc3c2OCO3)=Nc2ccccc2S1` (stereo unspecified), the EC50 was more than 17.4 µM and the IC50 was more than 17.4 µM.
